Literature values, collected in patent US20200016283A1, “COMBINATION THERAPY COMPRISING A RADIOPHARMACEUTICAL AND A DNA-REPAIR INHIBITOR” (Bayer AS, priority 2017, published 2020).

Conditions: complexed at ambient temperature in aqueous solutions

## Cn1ccc(C(=O)NCCN(CCNC(=O)c2ccn(C)c(=O)c2O)CC(Cc2ccc(CC(=O)CCC(=O)O)cc2)CN(CCNC(=O)c2ccn(C)c(=O)c2O)CCNC(=O)c2ccn(C)c(=O)c2O)c(O)c1=O [IV′]
  Stability of the Th-227 complex: highly stable
